Measurements as given in patent US20250059174A1, “Pharmaceutical Compounds and Compositions as C-Kit Kinase Inhibitors” (Enanta Pharmaceuticals, Inc., priority 2023, published 2025).
pEC50, pIC50: −log10 of the molar value.

Legend:
[1] = target: Recombinant human c-KIT kinase (Homo sapiens (Human), UniProt P10721); test: c-KIT kinase chemiluminescence assay (ADP-Glo); assay type: biochemical; details: ATP 50 μM
Summary of the method: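 Recombinant human c-KIT preincubated 30 min at RT in 40 mM Tris pH 7.5, 20 mM MgCl2, 0.1 mg/mL BSA, 50 μM DTT, then reacted 2 h at RT with ATP and polyEY substrate. ADP-Glo luminescence readout; activity normalized to high/low controls, IC50 and Hill coefficient from inhibitor-versus-normalized-response fit.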

M-07e cells = test: M-07e cellular assay (SCF-mediated cell proliferation); assay type: cell-based; details: Homo sapiens, 72 hours, CellTiter Glo
Summary of the method: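 EC50 values reflect inhibition of SCF-driven proliferation, with SCF at EC90 and a 72 h compound exposure, measured as CellTiter Glo luminescence. Growth is scaled between no-SCF (0%) and untreated (100%) wells.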

Chain of Recombinant human c-KIT kinase (P10721 26-976): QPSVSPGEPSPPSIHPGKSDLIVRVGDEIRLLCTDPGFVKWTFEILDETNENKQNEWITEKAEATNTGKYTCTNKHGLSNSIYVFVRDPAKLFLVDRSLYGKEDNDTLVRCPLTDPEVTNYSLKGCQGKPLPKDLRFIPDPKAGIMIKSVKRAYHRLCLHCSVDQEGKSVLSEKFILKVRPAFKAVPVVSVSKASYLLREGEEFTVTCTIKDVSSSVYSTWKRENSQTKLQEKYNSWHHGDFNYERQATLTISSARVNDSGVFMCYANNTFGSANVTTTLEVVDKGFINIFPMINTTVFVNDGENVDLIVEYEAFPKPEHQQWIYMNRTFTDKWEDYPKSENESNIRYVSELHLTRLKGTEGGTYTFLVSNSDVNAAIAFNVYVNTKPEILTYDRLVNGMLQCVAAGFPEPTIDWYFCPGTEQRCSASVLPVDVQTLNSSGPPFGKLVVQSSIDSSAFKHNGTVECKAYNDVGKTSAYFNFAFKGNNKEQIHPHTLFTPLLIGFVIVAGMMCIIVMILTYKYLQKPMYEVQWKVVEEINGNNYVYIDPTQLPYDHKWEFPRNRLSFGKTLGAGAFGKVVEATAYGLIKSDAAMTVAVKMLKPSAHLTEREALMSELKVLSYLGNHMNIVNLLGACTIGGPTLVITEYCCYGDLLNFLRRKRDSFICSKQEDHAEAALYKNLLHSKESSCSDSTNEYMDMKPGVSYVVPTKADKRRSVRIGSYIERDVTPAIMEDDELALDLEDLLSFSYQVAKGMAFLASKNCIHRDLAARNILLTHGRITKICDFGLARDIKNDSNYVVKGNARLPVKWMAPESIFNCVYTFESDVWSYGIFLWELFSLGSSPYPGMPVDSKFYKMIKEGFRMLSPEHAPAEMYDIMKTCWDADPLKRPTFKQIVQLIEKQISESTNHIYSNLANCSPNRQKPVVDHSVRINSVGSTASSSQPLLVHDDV

With `Cc1ccc(-c2ncc(OC(F)F)cn2)cc1NC(=O)c1cnn2ccc(N3CC4(COC4)C3)cc12` [Example 338] the pIC50 [1] was 6.00 to 7.00 and the pEC50 (M-07e cells) was > 7.00.

`Cc1ccc(-c2ncc(C3CC3)cn2)cc1NC(=O)c1cnn2ccc(N3CC4(C3)CC(O)(C(F)F)C4)cc12` [Example 339] was tested, and the pIC50 [1] was > 7.00 and the pEC50 (M-07e cells) was > 7.00.

In the case of `Cc1ccc(-c2cnc(C3CC3)nc2)cc1NC(=O)c1cnn2ccc(N3CC4(COC4)C3)cc12` [Example 340], the pIC50 [1] was > 7.00 and the pEC50 (M-07e cells) was > 7.00.

For `Cc1ccc(-c2cnc(C3CC3)cn2)cc1NC(=O)c1cnn2ccc(N3CC4(COC4)C3)cc12` [Example 341], the pIC50 [1] was > 7.00 and the pEC50 (M-07e cells) was > 7.00.

For `Cc1ccc(-c2ccc(C3CC3)nc2)cc1NC(=O)c1cnn2ccc(N3CC4(COC4)C3)cc12` [Example 342], the pIC50 [1] was > 7.00 and the pEC50 (M-07e cells) was > 7.00.

For `Cc1ccc(-c2ccc(C3CC3)nn2)cc1NC(=O)c1cnn2ccc(N3CC4(COC4)C3)cc12` [Example 343], the pIC50 [1] was > 7.00 and the pEC50 (M-07e cells) was > 7.00.

For `Cc1ccc(-c2ncc(C(F)F)cn2)cc1NC(=O)c1cnn2ccc(N3CC4(COC4)C3)cc12` [Example 344], the pIC50 [1] was 6.00 to 7.00 and the pEC50 (M-07e cells) was > 7.00.

For `Cc1ccc(-c2ncc(C(C)C)cn2)cc1NC(=O)c1cnn2ccc(N3CC4(COC4)C3)cc12` [Example 345], the pIC50 [1] was > 7.00 and the pEC50 (M-07e cells) was > 7.00.

In the case of `Cc1sc(-c2ncc(C3CC3)cn2)cc1NC(=O)c1cnn2ccc(N3CC4(C3)CC(O)(C(F)F)C4)cc12` [Example 346], the pIC50 [1] was > 7.00 and the pEC50 (M-07e cells) was > 7.00.

`Cc1sc(-c2nccc(C3CC3)n2)cc1NC(=O)c1cnn2ccc(N3CC4(C3)CC(O)(C(F)F)C4)cc12` [Example 347] gave a pIC50 [1] of 6.00 to 7.00 and a pEC50 (M-07e cells) of 6.00 to 7.00.

`Cc1ccc(-c2ncc(OC(F)(F)F)cn2)cc1NC(=O)c1cnn2ccc(N3CC4(COC4)C3)cc12` [Example 348] was tested, and the pIC50 [1] was > 7.00 and the pEC50 (M-07e cells) was > 7.00.

With `Cc1ccc(-c2ccc(C(C)C)cn2)cc1NC(=O)c1cnn2ccc(N3CC4(COC4)C3)cc12` [Example 349] the pIC50 [1] was > 7.00 and the pEC50 (M-07e cells) was > 7.00.

For `O=C(Nc1cc(-c2ccc(C3CC3)cn2)ccc1Cl)c1cnn2ccc(N3CC4(COC4)C3)cc12` [Example 350], the pIC50 [1] was < 6.00 and the pEC50 (M-07e cells) was < 6.00.

`Cc1ccc(-c2ccc(C3CC3)cn2)cc1NC(=O)c1cnn2ccc(N3CC4(C3)CC(O)(C(F)F)C4)cc12` [Example 351] was tested, and the pIC50 [1] was > 7.00 and the pEC50 (M-07e cells) was > 7.00.

In the case of `O=C(Nc1cc(-c2ccc(C3CC3)cn2)ccc1Cl)c1cnn2ccc(N3CC4(C3)CC(O)(C(F)F)C4)cc12` [Example 352], the pIC50 [1] was < 6.00 and the pEC50 (M-07e cells) was < 6.00.

For `Cc1ccc(-c2cnc(C3CC3)nc2)cc1NC(=O)c1cnn2ccc(N3CC4(C3)CC(O)(C(F)F)C4)cc12` [Example 353], the pIC50 [1] was > 7.00 and the pEC50 (M-07e cells) was > 7.00.

For `Cc1ccc(-c2cnc(N3CC(O)(C(F)(F)F)C3)nc2)cc1NC(=O)c1cnn2ccc(N3CC4(COC4)C3)cc12` [Example 354], the pIC50 [1] was > 7.00 and the pEC50 (M-07e cells) was > 7.00.

With `Cc1sc(-c2cnc(C3CC3)nc2)cc1NC(=O)c1cnn2ccc(N3CC4(C3)CC(O)(C(F)F)C4)cc12` [Example 355] the pIC50 [1] was 6.00 to 7.00 and the pEC50 (M-07e cells) was > 7.00.

In the case of `Cc1ncc(-c2ccc(C3CC3)cn2)cc1NC(=O)c1cnn2ccc(N3CC4(C3)CC(O)(C(F)F)C4)cc12` [Example 356], the pIC50 [1] was > 7.00 and the pEC50 (M-07e cells) was > 7.00.

`Cc1ncc(-c2ccc(C3CC3)cn2)cc1NC(=O)c1cnn2ccc(N3CC4(COC4)C3)cc12` [Example 357] was tested, and the pIC50 [1] was 6.00 to 7.00 and the pEC50 (M-07e cells) was > 7.00.

`Cc1ncc(-c2ncc(OC(F)(F)F)cn2)cc1NC(=O)c1cnc(-c2ccc3c(c2)CC(=O)N3)o1` [Example 358, N-(2-methyl-5-(5-(trifluoromethoxy)pyrimidin-2-yl)pyridin-3-yl)-2-(2-oxoindolin-5-yl)oxazole-5-carboxamide] was tested, and the pIC50 [1] was < 6.00 and the pEC50 (M-07e cells) was 6.00 to 7.00.

With `Cc1ccc(-c2ncc(OC(F)F)cn2)cc1NC(=O)c1cnc(-c2ccc3c(c2)CC(=O)N3)o1` [Example 359] the pIC50 [1] was 6.00 to 7.00 and the pEC50 (M-07e cells) was 6.00 to 7.00.

Molecule `Cc1ccc(-c2ncc(OC(F)(F)F)cn2)cc1NC(=O)c1cnc(-c2ccc3c(c2)CC(=O)N3)o1` [Example 360] has a pIC50 [1] of 6.00 to 7.00 and a pEC50 (M-07e cells) of 6.00 to 7.00.

In the case of `Cc1ncc(-c2ncc(C3CC3)cn2)cc1NC(=O)c1cnc(-c2ccc3c(c2)CC(=O)N3)o1` [Example 361], the pIC50 [1] was 6.00 to 7.00 and the pEC50 (M-07e cells) was 6.00 to 7.00.

In the case of `Cc1ncc(-c2ncc(OC(F)F)cn2)cc1NC(=O)c1cnc(-c2ccc3c(c2)CC(=O)N3)o1` [Example 362], the pIC50 [1] was 6.00 to 7.00 and the pEC50 (M-07e cells) was 6.00 to 7.00.

For `Cc1ccc(-c2ncc(C3CC3)cn2)cc1NC(=O)c1cnc(-c2ccc3c(c2)CC(=O)N3)o1` [Example 363], the pIC50 [1] was > 7.00 and the pEC50 (M-07e cells) was > 7.00.

With `Cc1ccc(-c2ncc(C3CC3)cn2)cc1NC(=O)c1cnn2ccc(-c3c(C)nc(N)nc3C)cc12` [Example 365] the pIC50 [1] was 6.00 to 7.00 and the pEC50 (M-07e cells) was > 7.00.

In the case of `Cc1ccc(-c2ncc(OC(F)F)cn2)cc1NC(=O)c1cnn2ccc(-c3c(C)nc(N)nc3C)cc12` [Example 366], the pIC50 [1] was < 6.00 and the pEC50 (M-07e cells) was 6.00 to 7.00.

Molecule `Cc1ccc(-c2ncc(OC(F)(F)F)cn2)cc1NC(=O)c1cnn2ccc(-c3c(C)nc(N)nc3C)cc12` [Example 367] has a pIC50 [1] of 6.00 to 7.00 and a pEC50 (M-07e cells) of 6.00 to 7.00.

`Cc1ncc(-c2ncc(C3CC3)cn2)cc1NC(=O)c1cnn2ccc(-c3c(C)nc(N)nc3C)cc12` [Example 371-1] was tested, and the pIC50 [1] was < 6.00 and the pEC50 (M-07e cells) was 6.00 to 7.00.

With `Cc1ccc(-c2nnc([C@H]3C[C@@H]3F)o2)cc1NC(=O)c1cnc(-c2ccc3c(c2)CC(=O)N3)o1` [Example 374] the pIC50 [1] was 6.00 to 7.00 and the pEC50 (M-07e cells) was 6.00 to 7.00.

`Cc1ncc(-c2cn(C3CC3)nn2)cc1NC(=O)c1cnn2ccc(N3CC4(C3)CC(O)(C(F)F)C4)cc12` [Example 377] was tested, and the pIC50 [1] was 6.00 to 7.00 and the pEC50 (M-07e cells) was > 7.00.
